The term AC50 denotes the midpoint of the concentration-response curve, whichever way the signal moves.

Experiment [1] deals with H460 (NRF2 pathway mutant cell line with high AKR1C3 expression). Kind of experiment: In vitro cell proliferation assay (CellTiter-Glo), H460. It is filed as cell-based. The settings on record: Homo sapiens, NCI-H460, 72 h; H460 cells, 3 days, CellTiter-Glo, top concentration 10 μM; read-out: H460 Qualified absolute AC50. The procedure, abridged:
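Cells seeded day 1 (H460 800/well, Hara 2000/well) in RPMI-1640 with 10% FBS; compounds added day 2 as 8-point 1:5 dilutions from 10 μM top. After 3 days at 37 °C, viability read by CellTiter-Glo luminescence, normalized to DMSO and MG132 (30 μM) controls to derive percentage activity and AC50.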

Experiment [2] deals with Hara (NRF2 pathway wild type cell line with low AKR1C3 expression). Kind of experiment: In vitro cell proliferation assay (CellTiter-Glo), Hara. In kind it is cell-based. Conditions: 72 h; Hara cells, 3 days, CellTiter-Glo, top concentration 10 μM; read-out: HARA Qualified absolute AC50. The text has this:
Cellular Proliferation Assay to Assess Compounds Activity in H460 (NRF2 Pathway Mutant Cell Line with High AKR1C3 Expression) and Hara (NRF2 Pathway Wild Type Cell Line with Low AKR1C3 Expression).
The cell lines A549 and H460 are NRF2 pathway mutant and specifically contain genetic alterations in KEAP1 (A549: G333C, H460: D236H) (Singh A. et al., 2006 PLoS Medicine 3(10) e420). In these cell lines the NRF2 pathway is constitutively active and these cells express high levels of NRF2 protein and NRF2 pathway target gene AKR1C3. […] They have low AKR1C3 expression.
In Vitro Cell Proliferation Assay
Day 1, for H460 800 cells/well or 40 μL of 2×10^4 cells/mL and for Hara 2000 cells/well or 40 μL of 5×10^4 cells/mL medium (RPMI-1640 supplemented with 10% fetal bovine serum and 1% penicillin/streptomycin) were seeded into 384-well tissue culture plates. Day 2, compounds were serially diluted 1:5 to generate 8 point dose response curves and added to cells for a final top concentration of 10 μM. DMSO (1%) control and MG132 (30 μM) controls are added in columns 23 and 24 respectively on each plate for positive and negative control. After incubation for 3 days at 37° C./5% CO2, 30 μl of CellTiter-Glo reagent (Promega) was added and the plates were incubated for 10 min on plate shaker. The amount of luminescence was determined using a Perkin Elmer Envision plate reader. CellTiter-Glo luminescence values of cells treated with DMSO and MG132 controls were used to normalize the data and calculate percentage activity and AC50s of compounds using the Helios Software suite.
For orientation: ATP-based viability assays read luminescence as a measure of living cells.

In the case of `Nc1ccc(CNC(=O)N2CCC3(CC2)CC(=O)c2cc(F)ccc2N3)c(F)c1F` [Example 57, N-(4-amino-2,3-difluorobenzyl)-6′-fluoro-4′-oxo-3′,4′-dihydro-1′H-spiro[piperidine-4,2′-quinoline]-1-carboxamide], the AC50 in experiment [1] is 170 nM; in experiment [2] it was greater than 10000 nM.
Take `COC(=O)c1cc(CNC(=O)N2CCC3(CC2)CC(=O)c2cc(F)ccc2N3)ccc1F` [Example 61, methyl 2-fluoro-5-((6′-fluoro-4′-oxo-3′,4′-dihydro-1′H-spiro[piperidine-4,2′-quinoline]-1-carboxamido)methyl)benzoate]: the AC50 stood at 205 nM in experiment [1] and 3040 nM in experiment [2].
Turning to `CN1c2ccc(F)cc2C(=O)CC12CCN(C(=O)NCc1ccc(F)c(CC(N)=O)c1)CC2` [Example 62, N-(3-(2-amino-2-oxoethyl)-4-fluorobenzyl)-6′-fluoro-1′-methyl-4′-oxo-3′,4′-dihydro-1′H-spiro[piperidine-4,2′-quinoline]-1-carboxamide], the AC50 in experiment [1] is 212 nM; in experiment [2], greater than 10000 nM.
In the case of `O=C1CC2(CCN(C(=O)NCc3ncccc3O)CC2)Nc2c(F)cc(F)cc21` [Example 63, 6′,8′-difluoro-N-((3-hydroxypyridin-2-yl)methyl)-4′-oxo-3′,4′-dihydro-1′H-spiro[piperidine-4,2′-quinoline]-1-carboxamide], the AC50 in experiment [1] was 222 nM; in experiment [2] it was greater than 10000 nM.
As to `CNC(=O)c1cc(CNC(=O)N2CCC3(CC2)CC(=O)c2cc(F)ccc2N3)ccc1F` [Example 64, 6′-fluoro-N-(4-fluoro-3-(methylcarbamoyl)benzyl)-4′-oxo-3′,4′-dihydro-1′H-spiro[piperidine-4,2′-quinoline]-1-carboxamide], the AC50 in experiment [1] was 222 nM; in experiment [2] it was greater than 10000 nM.
On the same counts, the results for `Nc1c(F)cc(CNC(=O)N2CCC3(CC2)CC(=O)c2cc(F)ccc2N3)cc1F` [Example 65, N-(4-amino-3,5-difluorobenzyl)-6′-fluoro-4′-oxo-3′,4′-dihydro-1′H-spiro[piperidine-4,2′-quinoline]-1-carboxamide] are 222 nM and greater than 10000 nM.
As to `CN(C)c1cccc(CNC(=O)N2CCC3(CC2)CC(=O)c2cc(F)cc(F)c2N3)n1` [Example 66, N-((6-(dimethylamino)pyridin-2-yl)methyl)-6′,8′-difluoro-4′-oxo-3′,4′-dihydro-1′H-spiro[piperidine-4,2′-quinoline]-1-carboxamide], the results for the AC50 in experiment [1] and in experiment [2] were 223 nM and greater than 10000 nM, respectively.
On to `O=C1CC2(CCN(C(=O)NCc3ccc(F)cc3C(F)(F)F)CC2)Nc2ccc(F)cc21` [Example 67, 6′-fluoro-N-(4-fluoro-2-(trifluoromethyl)benzyl)-4′-oxo-3′,4′-dihydro-1′H-spiro[piperidine-4,2′-quinoline]-1-carboxamide], for which the AC50 turned out to be 225 nM in experiment [1] and 2300 nM in experiment [2].
Consider `O=C1CC2(CCN(C(=O)NCc3ccc(F)cc3Cl)CC2)Nc2ccc(F)cc21` [Example 68, N-(2-chloro-4-fluorobenzyl)-6′-fluoro-4′-oxo-3′,4′-dihydro-1′H-spiro[piperidine-4,2′-quinoline]-1-carboxamide], for which the half-maximal activity concentration (AC50) in experiment [1] came to 226 nM; in experiment [2] it was 9140 nM.
For `NC(=O)c1cccc(CNC(=O)N2CCC3(CC2)CC(=O)c2cc(F)ccc2N3)c1` [Example 69, N-(3-carbamoylbenzyl)-6′-fluoro-4′-oxo-3′,4′-dihydro-1′H-spiro[piperidine-4,2′-quinoline]-1-carboxamide], in that order: 233 nM and greater than 10000 nM.
Consider `O=C1CC2(CCN(C(=O)NCc3ccc(F)c(OCCO)c3)CC2)Nc2ccc(F)cc21` [Example 70, 6′-fluoro-N-(4-fluoro-3-(2-hydroxyethoxy)benzyl)-4′-oxo-3′,4′-dihydro-1′H-spiro[piperidine-4,2′-quinoline]-1-carboxamide], for which the values for the AC50 in experiment [1] and in experiment [2] were 238 nM and 3550 nM, respectively.
Consider `O=C1CC2(CCN(C(=O)NCc3cc(OCCO)c(F)cc3F)CC2)Nc2ccc(F)cc21` [Example 71, N-(2,4-difluoro-5-(2-hydroxyethoxy)benzyl)-6′-fluoro-4′-oxo-3′,4′-dihydro-1′H-spiro[piperidine-4,2′-quinoline]-1-carboxamide], for which the AC50 in experiment [1] is 265 nM; in experiment [2], greater than 10000 nM.
`Nc1cc(CNC(=O)N2CCC3(CC2)CC(=O)c2cc(F)cc(F)c2N3)ccc1F` [Example 73, N-(3-amino-4-fluorobenzyl)-6′,8′-difluoro-4′-oxo-3′,4′-dihydro-1′H-spiro[piperidine-4,2′-quinoline]-1-carboxamide]: the results for the AC50 in experiment [1] and in experiment [2] were 295 nM and 3480 nM, respectively.
In the case of `NS(=O)(=O)c1cccc(CNC(=O)N2CCC3(CC2)CC(=O)c2cc(F)ccc2N3)c1` [Example 74, 6′-fluoro-4′-oxo-N-(3-sulfamoylbenzyl)-3′,4′-dihydro-1′H-spiro[piperidine-4,2′-quinoline]-1-carboxamide], the AC50 is 305 nM in experiment [1] and greater than 10000 nM in experiment [2].
For `CCN1c2ccc(F)cc2C(=O)CC12CCN(C(=O)NCc1ccc(F)c(NCCO)c1F)CC2` [Example 75, N-(2,4-difluoro-3-((2-hydroxyethyl)amino)benzyl)-1′-ethyl-6′-fluoro-4′-oxo-3′,4′-dihydro-1′H-spiro[piperidine-4,2′-quinoline]-1-carboxamide], in that order: 306 nM and greater than 10000 nM.
For `CN1c2ccc(F)cc2C(=O)CC12CCN(C(=O)NCc1ccc(N)cc1)CC2` [Example 76, N-(4-aminobenzyl)-6′-fluoro-1′-methyl-4′-oxo-3′,4′-dihydro-1′H-spiro[piperidine-4,2′-quinoline]-1-carboxamide], in that order: 309 nM and greater than 10000 nM.
For the molecule `O=C1CC2(CCN(C(=O)NCc3cc(NCCO)c(F)cc3F)CC2)Nc2ccc(F)cc21` [Example 77, N-(2,4-difluoro-5-((2-hydroxyethyl)amino)benzyl)-6′-fluoro-4′-oxo-3′,4′-dihydro-1′H-spiro[piperidine-4,2′-quinoline]-1-carboxamide], the AC50 is 311 nM in experiment [1] and greater than 10000 nM in experiment [2].
Turning to `O=C1CC2(CCN(C(=O)NCc3ccc(F)c(NCCO)c3)CC2)Nc2ccc(F)cc21` [Example 78, 6′-fluoro-N-(4-fluoro-3-((2-hydroxyethyl)amino)benzyl)-4′-oxo-3′,4′-dihydro-1′H-spiro[piperidine-4,2′-quinoline]-1-carboxamide], the AC50 in experiment [1] is 321 nM; in experiment [2] it was greater than 10000 nM.
On the same counts, the results for `Nc1cc(F)c(CNC(=O)N2CCC3(CC2)CC(=O)c2cc(F)ccc2N3)c(F)c1` [Example 80, N-(4-amino-2,6-difluorobenzyl)-6′-fluoro-4′-oxo-3′,4′-dihydro-1′H-spiro[piperidine-4,2′-quinoline]-1-carboxamide] are 347 nM and greater than 10000 nM.
In the case of `CN1c2ccc(F)cc2C(=O)CC12CCN(C(=O)NCc1ccc(F)c(C(=O)NCCO)c1)CC2` [Example 82, 6′-fluoro-N-(4-fluoro-3-((2-hydroxyethyl)carbamoyl)benzyl)-1′-methyl-4′-oxo-3′,4′-dihydro-1′H-spiro[piperidine-4,2′-quinoline]-1-carboxamide], the AC50 in experiment [1] is 356 nM; in experiment [2], greater than 10000 nM.
For `O=C1CC2(CCN(C(=O)NCc3ccc(F)c(CO)c3)CC2)Nc2ccc(F)cc21` [Example 83, 6′-fluoro-N-(4-fluoro-3-(hydroxymethyl)benzyl)-4′-oxo-3′,4′-dihydro-1′H-spiro[piperidine-4,2′-quinoline]-1-carboxamide], in that order: 361 nM and greater than 10000 nM.
As to `Nc1c(F)ccc(CNC(=O)N2CCC3(CC2)CC(=O)c2cc(F)ccc2N3)c1F` [Example 84, N-(3-amino-2,4-difluorobenzyl)-6′-fluoro-4′-oxo-3′,4′-dihydro-1′H-spiro[piperidine-4,2′-quinoline]-1-carboxamide], the concentration at half-maximal activity (AC50) in experiment [1] is 367 nM; in experiment [2] it was greater than 10000 nM.
For `C/C=C/CN1c2ccc(F)cc2C(=O)CC12CCN(C(=O)NCc1ccc(F)cc1)CC2` [Example 85, (E)-1′-(but-2-en-1-yl)-6′-fluoro-N-(4-fluorobenzyl)-4′-oxo-3′,4′-dihydro-1′H-spiro[piperidine-4,2′-quinoline]-1-carboxamide], in that order: 371 nM and 9490 nM.
Regarding `CN1c2ccc(F)cc2C(=O)CC12CCN(C(=O)NCc1ccc(F)cc1NCCO)CC2` [Example 86, 6′-fluoro-N-(4-fluoro-2-((2-hydroxyethyl)amino)benzyl)-1′-methyl-4′-oxo-3′,4′-dihydro-1′H-spiro[piperidine-4,2′-quinoline]-1-carboxamide], the concentration at half-maximal activity (AC50) in experiment [1] was 379 nM; in experiment [2], greater than 10000 nM.

These data come from patent publication US11970497B2, “Tricyclic AKR1C3 dependent KARS inhibitors” (Novartis AG, priority 2019, dated 2024).
